According to the NIST ThermoML archive (doi:10.1016/j.jct.2008.10.010):

Test: molar heat capacity at constant pressure; xn = mol fraction of the nth substance listed
Details: 101.3 kPa, Liquid, Small sample (50 mg) DSC

CCC(C)(C)O [2-methylbutan-2-ol] + CCCCCCC
Details	molar heat capacity at constant pressure [J/K/mol]
292.14 K, x1 = 0.9609	240.86
292.16 K, x1 = 0.0249	228.51
293.14 K, x1 = 0.0061	223.05
293.14 K, x1 = 0.0249	228.85
293.14 K, x1 = 0.0494	233.49
293.14 K, x1 = 0.1	238.13
293.14 K, x1 = 0.1547	240.82
293.14 K, x1 = 0.1999	242.32
293.14 K, x1 = 0.2993	244.48
293.14 K, x1 = 0.4051	245.2
293.14 K, x1 = 0.4986	245.35
293.14 K, x1 = 0.5981	245.12
293.14 K, x1 = 0.7015	244.38
293.14 K, x1 = 0.8023	243.13
293.14 K, x1 = 0.9139	242.22
293.14 K, x1 = 0.9609	241.95
294.15 K, x1 = 0.0061	223.39
294.15 K, x1 = 0.0249	229.18
294.15 K, x1 = 0.0494	233.86
294.15 K, x1 = 0.1	238.71
294.15 K, x1 = 0.1547	241.58
294.15 K, x1 = 0.1999	243.15
294.15 K, x1 = 0.2993	245.43
294.15 K, x1 = 0.4051	246.27
294.15 K, x1 = 0.4986	246.46
294.15 K, x1 = 0.5981	246.23
294.15 K, x1 = 0.7015	245.52
294.15 K, x1 = 0.8023	244.34
294.15 K, x1 = 0.9139	243.38
294.15 K, x1 = 0.9609	243.11
295.14 K, x1 = 0.0061	223.7
295.14 K, x1 = 0.0249	229.37
295.14 K, x1 = 0.0494	234.25
295.14 K, x1 = 0.1	239.22
295.14 K, x1 = 0.1547	242.31
295.14 K, x1 = 0.1999	243.96
295.14 K, x1 = 0.2993	246.32
295.14 K, x1 = 0.4051	247.28
295.14 K, x1 = 0.4986	247.54
295.14 K, x1 = 0.5981	247.38
295.14 K, x1 = 0.7015	246.7
295.14 K, x1 = 0.8023	245.54
295.14 K, x1 = 0.9139	244.5
295.14 K, x1 = 0.9609	244.22
296.14 K, x1 = 0.0061	223.96
296.14 K, x1 = 0.0249	229.63
296.14 K, x1 = 0.0494	234.59
296.14 K, x1 = 0.1	239.76
296.14 K, x1 = 0.1547	242.94
296.14 K, x1 = 0.1999	244.6
296.14 K, x1 = 0.2993	247.2
296.14 K, x1 = 0.4051	248.27
296.14 K, x1 = 0.4986	248.61
296.14 K, x1 = 0.5981	248.5
296.14 K, x1 = 0.7015	247.88
296.14 K, x1 = 0.8023	246.68
296.14 K, x1 = 0.9139	245.64
296.14 K, x1 = 0.9609	245.31
297.15 K, x1 = 0.0061	224.33
297.15 K, x1 = 0.0249	229.81
297.15 K, x1 = 0.0494	235.01
297.15 K, x1 = 0.1	240.36
297.15 K, x1 = 0.1547	243.63
297.15 K, x1 = 0.1999	245.46
297.15 K, x1 = 0.2993	248.18
297.15 K, x1 = 0.4051	249.33
297.15 K, x1 = 0.4986	249.76
297.15 K, x1 = 0.5981	249.72
297.15 K, x1 = 0.7015	249.04
297.15 K, x1 = 0.8023	247.89
297.15 K, x1 = 0.9139	246.86
297.15 K, x1 = 0.9609	246.4
298.14 K, x1 = 0.0061	224.65
298.14 K, x1 = 0.0249	230.08
298.14 K, x1 = 0.0494	235.35
298.14 K, x1 = 0.1	240.89
298.14 K, x1 = 0.1547	244.27
298.14 K, x1 = 0.1999	246.18
298.14 K, x1 = 0.2993	249.05
298.14 K, x1 = 0.4051	250.35
298.14 K, x1 = 0.4986	250.83
298.14 K, x1 = 0.5981	250.81
298.14 K, x1 = 0.7015	250.24
298.14 K, x1 = 0.8023	249.08
298.14 K, x1 = 0.9139	247.97
298.14 K, x1 = 0.9609	247.48
298.16 K, x1 = 0.0061	224.66
298.16 K, x1 = 0.0249	230.09
298.16 K, x1 = 0.0494	235.36
298.16 K, x1 = 0.1	240.91
298.16 K, x1 = 0.1547	244.3
298.16 K, x1 = 0.1999	246.2
298.16 K, x1 = 0.2993	249.07
298.16 K, x1 = 0.4051	250.39
298.16 K, x1 = 0.4986	250.87
298.16 K, x1 = 0.5981	250.84
298.16 K, x1 = 0.7015	250.29
298.16 K, x1 = 0.8023	249.11
298.16 K, x1 = 0.9139	248
298.16 K, x1 = 0.9609	247.52
299.14 K, x1 = 0.0061	224.99
299.14 K, x1 = 0.0249	230.35
299.14 K, x1 = 0.0494	235.67
299.14 K, x1 = 0.1	241.48
299.14 K, x1 = 0.1547	244.98
299.14 K, x1 = 0.1999	246.99
299.14 K, x1 = 0.2993	249.97
299.14 K, x1 = 0.4051	251.31
299.14 K, x1 = 0.4986	251.91
299.14 K, x1 = 0.5981	251.9
299.14 K, x1 = 0.7015	251.35
299.14 K, x1 = 0.8023	250.25
299.14 K, x1 = 0.9139	249.1
299.14 K, x1 = 0.9609	248.6
300.15 K, x1 = 0.0061	225.26
300.15 K, x1 = 0.0249	230.51
300.15 K, x1 = 0.0494	236
300.15 K, x1 = 0.1	241.9
300.15 K, x1 = 0.1547	245.57
300.15 K, x1 = 0.1999	247.7
300.15 K, x1 = 0.2993	250.81
300.15 K, x1 = 0.4051	252.27
300.15 K, x1 = 0.4986	252.92
300.15 K, x1 = 0.5981	253
